Test results reported in patent US11160282B2, “Use of a composition and method for reducing bacterial spores in pulp suspension” (Kemira Oyj, priority 2016, dated 2021).

Experiments:
Type in all cases: cell-based
[1] = system: aerobic spores; assay: Example 4 (reference): laboratory test, broke sample, aerobic spore count; details: broke 1.0% consistency, pH 7.8, ORP +146 mV; 10 ppm active chlorine, 1 day contact time; untreated 70 cfu/ml
Method: (§1) This laboratory test was performed in order to test killing effect of sodium hypochlorite against total aerobes and aerobic spores in broke sample (consistency 1.0%, pH 7.8, ORP +146 mV) taken from an alkaline board machine, which produces 3-ply food packaging board. Total aerobes and aerobic spore counts were quantitated by using plate count agar (+45° C./+37° C., 2 days incubation). Prior to the bacterial spore determination, samples were pasteurized at +80° C. for 20 min.

[2] = system: total aerobes; assay: Example 4 (reference): laboratory test, broke sample, total aerobes count; details: broke 1.0% consistency, pH 7.8, ORP +146 mV; 10 ppm active chlorine, 1 day contact time; untreated 650 000 cfu/ml
Method: as §1

[3] = system: aerobic spores; assay: Example 5: pilot paper machine test, aerobic spores in dry paper (ISO 8784-1); details: glutaraldehyde alone, 50 ppm as active agent, 5 min post-treatment of pulp suspension (reference paper)
Method: This test was performed in a pilot paper machine producing 1-ply paper. Aim of the test was to verify efficacy of the invention to provide a low quantity of aerobic bacteria and aerobic bacterial spores in dry paper end-product. Composition 1-5 comprising 40 weight-% of dodecylamine, 40 weight-% of dipropylene glycol and 20 weight-% of water was used according to the invention. It was dosed as 100, 150 or 300 mg/l into pulp suspension with 2.25% consistency. The pulp suspension was then mixed 120 rpm for 30 min at +40° C. The pulp suspension was made from a batch of authentic, spore-contaminated folding-box board with average spore content of 7000 cfu/gram of dry board. All pulp suspensions in the pilot paper machine were also post-treated (5 min, 120 rpm) with glutaraldehyde (dose: 50 ppm as active agent) in order to maintain control of vegetative bacterial cells in the pilot machine. Total aerobic bacteria (without pasteurization) and aerobic spores (with pasteurization step at +82° C. for 10 min) were quantified from the dry paper end product according to the ISO 8784-1 standard for microbiological examination of paper and board.

Compound | aerobic spores [1] [cfu/ml] | total aerobes [2] | effect on spore contamination in the produced paper [3]
OCl [Sodium hypochlorite, sodium hypochlorite] | 60 | 390 000 cfu/ml | 
O=CCCCC=O [glutaraldehyde] |  |  | not alone capable to lower spore contamination
